Source: US9255100B2 (BAYER INTELLECTUAL PROPERTY GMBH, priority 2010, dated 2016)

What was measured:
[1] = biological target: T1, N-terminally GST-tagged human full length recombinant Mps-1 kinase (Homo sapiens, UniProt P33981); experiment: Mps-1 kinase assay (TR-FRET); assay type: biochemical; details: Mps1 IC50 [nM], 10 μM ATP, 1 μM peptide substrate, 60 min at 22° C.
T1 construct: N-terminally GST-tagged human full length recombinant Mps-1 kinase; purchased Invitrogen, Karslruhe, Germany PV4071
T1 sequence (P33981 1-857): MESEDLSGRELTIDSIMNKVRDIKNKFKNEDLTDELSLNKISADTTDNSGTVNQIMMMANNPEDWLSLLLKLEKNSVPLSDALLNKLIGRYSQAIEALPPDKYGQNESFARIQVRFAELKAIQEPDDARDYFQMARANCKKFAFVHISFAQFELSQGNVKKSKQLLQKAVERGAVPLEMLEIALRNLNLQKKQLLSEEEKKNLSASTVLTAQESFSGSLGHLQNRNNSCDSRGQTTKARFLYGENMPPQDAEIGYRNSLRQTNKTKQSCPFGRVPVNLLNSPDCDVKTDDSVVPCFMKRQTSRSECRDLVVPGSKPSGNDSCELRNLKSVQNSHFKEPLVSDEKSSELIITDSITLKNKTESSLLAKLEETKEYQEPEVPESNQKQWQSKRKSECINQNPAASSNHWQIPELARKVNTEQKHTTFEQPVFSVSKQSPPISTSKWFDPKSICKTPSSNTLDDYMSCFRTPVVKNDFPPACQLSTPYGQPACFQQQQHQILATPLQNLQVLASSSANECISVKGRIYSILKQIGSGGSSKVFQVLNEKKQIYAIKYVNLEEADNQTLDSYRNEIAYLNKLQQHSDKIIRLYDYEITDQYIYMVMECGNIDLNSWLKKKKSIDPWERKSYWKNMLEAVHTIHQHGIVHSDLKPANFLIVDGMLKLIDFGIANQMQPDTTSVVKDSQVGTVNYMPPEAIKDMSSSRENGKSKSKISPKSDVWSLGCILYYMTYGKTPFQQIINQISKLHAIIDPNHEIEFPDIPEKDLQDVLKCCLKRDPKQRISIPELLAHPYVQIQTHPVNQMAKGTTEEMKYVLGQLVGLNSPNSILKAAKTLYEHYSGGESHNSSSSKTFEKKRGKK
Summary of the method: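 GST-Mps-1 (full length, N-term tag) ~1 nM final, linear-range adjusted per lot; biotinylated peptide substrate. Detection: Eu-anti-pSer/Thr donor → SA-XLent acceptor TR-FRET, 1 h, 22° C. Inhibition of kinase activity.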

[2] = test system: Hepatocytes from Han Wistar rats; experiment: In vitro metabolic stability in rat hepatocytes (calculation of hepatic in vivo blood clearance and Fmax); assay type: in vitro ADME; details: for Fmax [%]: maximal oral bioavailability calculated from half-life in rat hepatocytes, 1 μM test compound
Experimental: Investigation of In Vitro Metabolic Stability in Rat Hepatocytes (Including Calculation of Hepatic In Vivo Blood Clearance (CL))
Hepatocytes from Han Wistar rats were isolated via a 2-step perfusion method. After perfusion, the liver was carefully removed from the rat: the liver capsule was opened and the hepatocytes were gently shaken out into a Petri dish with ice-cold WME. The resulting cell suspension was filtered through sterile gaze in 50 ml falcon tubes and centrifuged at 50×g for 3 min at room temperature. The cell pellet was resuspended in 30 ml WME and centrifuged through a Percoll® gradient for 2 times at 100×g. The hepatocytes were washed again with Williams' medium E (WME) and resuspended in medium containing 5% FCS. Cell viability was determined by trypan blue exclusion.
For the metabolic stability assay liver cells were distributed in WME containing 5% FCS to glass vials at a density of 1.0×10^6 vital cells/ml. The test compound was added to a final concentration of 1 μM. During incubation, the hepatocyte suspensions were continuously shaken and aliquots were taken at 2, 8, 16, 30, 45 and 90 min, to which equal volumes of cold methanol were immediately added. Samples were frozen at −20° C. over night, after subsequently centrifuged for 15 minutes at 3000 rpm and the supernatant was analyzed with an Agilent 1200 HPLC-system with LCMS/MS detection.
The half-life of a test compound was determined from the concentration-time plot. From the half-life the intrinsic clearances were calculated. Together with the additional parameters liver blood flow, amount of liver cells in vivo and in vitro. The hepatic in vivo blood clearance (CL) and the maximal oral bioavailability (Fmax) was calculated. The following parameter values were used: Liver blood flow—4.2 L/h/kg rat; specific liver weight—32 g/kg rat body weight; liver cells in vivo—1.1×10^8 cells/g liver, liver cells in vitro—0.5×10^6/ml.

| Structure (SMILES) | IC50 [1] [nM] | Fmax [%] [2] [%] | increase of metabolic stability ([2]; relative increase of Fmax (rat hepatocytes) against the comparison compound of the same table) [%] |
| --- | --- | --- | --- |
| COc1ccc(Oc2cc(NCC3CCOCC3)c3ncc(-c4ccc(C(=O)NC5CC5)cc4)n3n2)c(F)c1 [Example 444, N-cyclopropyl-4-{6-(2-fluoro-4-methoxyphenoxy)-8-[(tetrahydro-2H-pyran-4-ylmethyl)amino]imidazo[1,2-b]pyridazin-3-yl}benzamide] | – | 22 | – |
| Cc1cc(-c2cnc3c(NCCN4CCOCC4)cc(Oc4cccc(F)c4F)nn23)ccc1C(=O)NC1CC1 [Example 536, N-cyclopropyl-4-[6-(2,3-difluorophenoxy)-8-{[2-(morpholin-4-yl)ethyl]amino}imidazo[1,2-b]pyridazin-3-yl]-2-methylbenzamide] | 0.3 | 37 | – |
| O=C(NC1CC1)c1ccc(-c2cnc3c(NCCC(F)(F)F)cc(Oc4cccc(F)c4)nn23)cc1 [Example 463, N-cyclopropyl-4-{6-(3-fluorophenoxy)-8-[(3,3,3-trifluoropropyl)amino]imidazo[1,2-b]pyridazin-3-yl}benzamide] | – | 7 | – |
| Cc1cc(-c2cnc3c(NCCS(C)(=O)=O)cc(Oc4cccc(F)c4F)nn23)ccc1C(=O)NC1CC1 [Example 516, N-cyclopropyl-4-[6-(2,3-difluorophenoxy)-8-{[2-(methylsulfonyl)ethyl]amino}imidazo[1,2-b]pyridazin-3-yl]-2-methylbenzamide] | 0.3 | 69 | – |
| Cc1cc(-c2cnc3c(NCCN(C)C)cc(Oc4ccc(F)c(F)c4)nn23)ccc1C(=O)NC1CC1 [Example 525, N-cyclopropyl-4-[6-(3,4-difluorophenoxy)-8-{[2-(dimethylamino)ethyl]amino}imidazo[1,2-b]pyridazin-3-yl]-2-methylbenzamide] | 0.7 | – | – |
| Cc1cc(F)cc(Sc2cc(NCCCC(F)(F)F)c3ncc(-c4ccc(C(=O)NC5CC5)c(C)c4)n3n2)c1 [Example 449, N-cyclopropyl-4-{6-[(3-fluoro-5-methylphenyl)sulfanyl]-8-[(4,4,4-trifluorobutyl)amino]imidazo[1,2-b]pyridazin-3-yl}-2-methylbenzamide] | 0.6 | – | – |
| Cc1cc(-c2cnc3c(NCCC(F)(F)F)cc(Sc4ccccc4)nn23)ccc1C(=O)NC1CC1 [Example 207, N-cyclopropyl-2-methyl-4-{6-(phenylsulfanyl)-8-[(3,3,3-trifluoropropyl)amino]imidazo[1,2-b]pyridazin-3-yl}benzamide] | < 1 | – | – |
| CC(C)(O)CNc1cc(-c2ccccc2)nn2c(-c3ccc(C(=O)NC4CC4)cc3)cnc12 [Example 14, N-cyclopropyl-4-{8-[(2-hydroxy-2-methylpropyl)amino]-6-phenylimidazo[1,2-b]pyridazin-3-yl}benzamide] | 1.2 | – | – |

Further molecules by falling IC50 [1], results first:

| IC50 [1] [nM] | Fmax [%] [2] [%] | increase of metabolic stability ([2]; relative increase of Fmax (rat hepatocytes) against the comparison compound of the same table) [%] | Structure (SMILES) |
| --- | --- | --- | --- |
| 0.2 | 56 | 81 | Cc1cc(-c2cnc3c(NCCC(F)(F)F)cc(Oc4cccc(F)c4)nn23)ccc1C(=O)NC1CC1 [Example 80, N-cyclopropyl-4-{6-(3-fluorophenoxy)-8-[(3,3,3-trifluoropropyl)amino]imidazo[1,2-b]pyridazin-3-yl}-2-methylbenzamide] |
| 0.2 | 31 | – | Cc1cc(-c2cnc3c(NCC4CCOCC4)cc(Oc4cccc(F)c4)nn23)ccc1C(=O)NC1CC1 [Example 323, N-cyclopropyl-4-{6-(3-fluorophenoxy)-8-[(tetra-hydro-2H-pyran-4-yl-methyl)amino]imidazo[1,2-b]pyridazin-3-yl}-2-methylbenzamide] |
| 0.2 | 75 | – | Cc1cc(-c2cnc3c(NCCC(F)(F)F)cc(Oc4cccc(F)c4)nn23)ccc1C(=O)NC1(C)CC1 [Example 461, 4-{6-(3-fluorophenoxy)-8-[(3,3,3-trifluoropropyl)amino]imidazo[1,2-b]pyridazin-3-yl}-2-methyl-N-(1-methylcyclopropyl)benzamide] |
| 0.2 | 61 | – | COc1ccc(Oc2cc(NCC3CCOCC3)c3ncc(-c4ccc(C(=O)NC5CC5)c(C)c4)n3n2)c(F)c1 [Example 445, N-cyclopropyl-4-{6-(2-fluoro-4-methoxyphenoxy)-8-[(tetrahydro-2H-pyran-4-ylmethyl)amino]imidazo[1,2-b]pyridazin-3-yl}-2-methylbenzamide] |
| 0.2 | – | – | Cc1cc(-c2cnc3c(NCCN4CCCCC4)cc(Oc4cccc(F)c4)nn23)ccc1C(=O)NC1CC1 [Example 499, N-cyclopropyl-4-[6-(3-fluoro-phenoxy)-8-{[2-(piperidin-1-yl)ethyl]amino}imidazo[1,2-b]pyridazin-3-yl]-2-methyl-benzamide] |
| 0.1 | 39 | – | CNc1cc(Oc2cccc(F)c2)nn2c(-c3ccc(C(=O)NC4CC4)c(C)c3)cnc12 [Example 510, N-cyclopropyl-4-[6-(3-fluoro-phenoxy)-8-(methylamino)imidazo[1,2-b]pyridazin-3-yl]-2-methylbenzamide] |
| 0.1 | 47 | – | Cc1ccc(F)cc1Oc1cc(NCC(C)(C)O)c2ncc(-c3ccc(C(=O)NC4CC4)c(C)c3)n2n1 [Example 391, N-cyclopropyl-4-{6-(5-fluoro-2-methylphenoxy)-8-[(2-hydroxy-2-methylpropyl)amino]imidazo[1,2-b]pyridazin-3-yl}-2-methylbenzamide] |
| 0.1 | 42 | – | COCCNc1cc(Oc2cccc(F)c2)nn2c(-c3ccc(C(=O)NC4CC4)c(C)c3)cnc12 [Example 492, N-cyclopropyl-4-{6-(3-fluoro-phenoxy)-8-[(2-methoxyethyl)amino]imidazo[1,2-b]pyridazin-3-yl}-2-methylbenzamide] |
| 0.1 | 55 | – | Cc1ccc(F)cc1Oc1cc(NCCC(F)(F)F)c2ncc(-c3ccc(C(=O)NC4CC4)c(C)c3)n2n1 [Example 390, N-cyclopropyl-4-{6-(5-fluoro-2-methylphenoxy)-8-[(3,3,3-trifluoropropyl)amino]imidazo[1,2-b]pyridazin-3-yl}-2-methylbenzamide] |
| 0.1 | 50 | – | Cc1cc(-c2cnc3c(NCC4CCN(C)CC4)cc(Oc4cccc(F)c4F)nn23)ccc1C(=O)NC1CC1 [Example 526, N-cyclopropyl-4-[6-(2,3-difluorophenoxy)-8-{[(1-methylpiperidin-4-yl)-methyl]amino}imidazo[1,2-b]pyridazin-3-yl]-2-methylbenzamide] |
| 0.1 | 40 | – | Cc1cc(-c2cnc3c(NCCN4CCOCC4)cc(Oc4cccc(F)c4)nn23)ccc1C(=O)NC1CC1 [Example 500, N-cyclopropyl-4-[6-(3-fluoro-phenoxy)-8-{[2-(morpholin-4-yl)ethyl]amino}imidazo[1,2-b]pyridazin-3-yl]-2-methylbenzamide] |
| 0.1 | – | – | Cc1cc(-c2cnc3c(NCCC(F)(F)F)cc(Nc4ccccc4CO)nn23)ccc1C(=O)NC1CC1 [Example 370] |
